Reference: a melting point compilation (Tetko et al.; mined from patent text by program, amines drawn as free bases though some values may be those of a salt)
Residues, ends and D or L forms follow the SMILES beside them. *: point of attachment. Cbz = O=C(OCc1ccccc1)*; Boc = CC(C)(C)OC(=O)*

| SMILES | melting point |
| --- | --- |
| O=C(O)c1cc(Cl)c(C(=O)O)c([N+](=O)[O-])c1Cl | 287 to 288 °C |
| CCNC(=O)n1nc(Oc2c([N+](=O)[O-])cc([N+](=O)[O-])cc2C(F)(F)F)cc1C | 169 to 171 °C |
| Cc1cc(C(=O)CC(=O)C(F)(F)F)c(F)cc1Cl | 59 to 60 °C |
| CSCc1cnc(Cl)nc1 | 56 to 57 °C |
| O=C(NCCCOc1ccncc1)c1cccnc1 | 117 to 119 °C |
| COC(=O)C1(NC(=O)Cc2cc(C(C)=O)ccc2C)CCN(OC)CC1 | 138 to 139 °C |
| COc1cc2[nH]c(=O)c(=O)n(C)c2cc1[N+](=O)[O-] | 356 °C |
| CCOC(=O)c1cn(-c2cccc(OC3CCCC3)c2)cn1 | 66 to 67 °C |
| COc1ccc(-c2cn([C@H]3CN4CCC3CC4)nn2)cn1 | 155 °C |
| CCCc1c(OCCCOc2cc(OCC(=O)O)ccc2C(C)=O)ccc(C(C)=O)c1O | 151 to 155 °C |
| CN(CCc1ccccc1)C(=O)Cn1cc(C=Cc2nnn[nH]2)c2cc(OCc3ccccc3)ccc21 | 203 to 205 °C |
| Cc1c(C(F)(F)F)ncn1-c1ncc(C(F)(F)F)cc1Cl | 59.4 °C |
| CC1(C)CCOC1=C(Sc1ccc(Cl)cc1)n1ccnc1 | 134 °C |
| CC(C)(O)COC1CCNCC1 | 80 to 82 °C |
| CCCn1c(CO)nc(C(C)C)c1Sc1cc(Cl)cc(Cl)c1 | 104 to 107 °C |
| Fc1cccc(Cl)c1CNc1ncnc2nsnc12 | 224 to 226 °C |
| CCCN(C(C)C)[C@H]1COc2cccc(C(N)=O)c2C1 | 121 to 122 °C |
| O=c1[nH]c2cc(F)c(O)c([N+](=O)[O-])c2[nH]c1=O | > 360 °C |
| Cc1cc2c(cc1O)OCCC2=O | 185 to 186 °C |
| O=C(C=CCN1CCN(C[C@H]2CCC(=O)O2)CC1)Nc1cc2c(Nc3ccc(F)c(Cl)c3)ncnc2cc1OCC1CC1 | 145 to 150 °C |
| CCOC(=O)C1=C(N)N=C(OCC)C(C(=O)OCC)C1c1cccc([N+](=O)[O-])c1 (stereo not drawn) | 129 °C |
| CC(C)c1nn(-c2ccc(C(F)(F)F)cn2)cc1COc1cc(CCC(=O)O)n(C)n1 | 141 to 142 °C |

| SMILES | melting point |
| --- | --- |
| CCOC(=O)c1ccc(-c2cccc(-c3ccc4c(c3)C(C)(C)CCC4(C)C)c2O)cc1 | 121 °C |
| FN(F)C12CC3CC(CC(C3)C1)C2 | 113 to 115 °C |
| Fc1ccc(OCCCCCCN2CCN(c3nccs3)CC2)cc1 | 58 to 60 °C |
| N#COc1ccc(C2(c3ccc(OC#N)cc3)OC(=O)c3ccccc32)cc1 | 130 °C |
| CCOC(=O)c1cn(CC)c2nc3cc(F)c(F)cc3cc2c1=O | 270 °C |
| CN1CCC(OC2c3ccccc3CCn3c2nc(-c2ccccc2)c3C(N)=O)CC1 (stereo not drawn) | 102 °C |
| CC(C)(C)OC(=O)NC(CCCCNC(=O)OCc1ccccc1)C(=O)N1CCCC1C(=O)NC(CCCNC(=N)N)C(=O)O (stereo not drawn) (Boc-Lys(Cbz)-Pro-Arg-OH; configuration not given here) | 90 °C |
| CCn1ccnc1CC1COc2ccccc2O1 (stereo not drawn) | 77 to 78 °C |
| CCCCN(CC(=O)c1ccc(OCc2ccccc2)c2[nH]c(C(=O)OCCN3CCOCC3)cc12)Cc1ccccc1 | 149 to 150 °C |
| CC=CC(=O)Nc1n[nH]c2cc(Cl)ccc12 | 226 °C |
| ClCc1coc(-c2ccc(Br)o2)n1 | 90 to 92 °C |
| CC(C)(C)OC(=O)NCC(=O)N1CCC[C@H]1C(=O)OC[C@H](Cc1ccccc1)Nc1ccc(O)c2c1C(=O)c1c(O)cccc1C2=O | 100 °C |
| Cc1c(C(N)=O)oc2nn(C)c(C)c12 | 148 to 150 °C |
| CCCCOC(=O)Cc1cc(O)c(C)cc1O | 113 °C |
| Cc1cccc2c1SC1(CCOC1=O)C2=O (stereo not drawn) | 98.5 to 99.5 °C |
| COc1cc(CC(=O)O)c(C(=O)O)cc1OC | 217 to 219 °C |
| CCN(CC)CCCNC(=O)Cn1ncc(-c2ccccn2)c1-c1ccccc1 | 82 to 83 °C |
| CN(C)N=Nc1cscc1C(N)=O | 168 to 172 °C |
| CC(=O)N1CCN(c2ccc(N)c(C)c2)CC1 | 126 to 129 °C |
| C#CCN(C(C)C)S(=O)(=O)NC(=O)c1cc(-n2c(=O)cc(C(F)(F)F)n(C)c2=S)c(F)cc1Cl | 94 to 105 °C |
| CCn1cc(C(=O)NCc2ccc(Cl)cc2)c(=O)c2cc(C#CCOC(=O)CN3CCOCC3)sc21 | 168 to 170 °C |
| CNC1NC(=O)N(C)C(=O)N1N (stereo not drawn) | 225 to 227 °C |

| SMILES | melting point |
| --- | --- |
| CON=Cc1nc2c(N)nc3cc(-c4ccccc4)ccc3c2s1 | 259 to 261 °C |
| CCC[C@H](NC(=O)Cc1cc(C)sc1C)C(=O)Nc1ncc(-c2ccccc2COCC)s1 | 84 °C |
| CC(C)CC(O)c1cccc(NC(=O)OCc2ccccc2)c1 (stereo not drawn) | 73 to 77 °C |
| CC(C)(C)c1cc(NS(C)(=O)=O)cc(C(C)(C)C)c1O | 149 to 151 °C |
| CCCCCCCCCCOc1ccc(OCc2ccccc2)c(C(=O)N(CC(=O)O)CC(=O)O)c1 | 74 to 78 °C |
| OCC1(CO)COC(c2nc(-c3ccccc3)c(-c3ccccc3)n2Cc2ccccc2)OC1 | 186 to 188 °C |
| O=C(CNC1=Nc2ccc(Cl)cc2C(c2ccccc2Cl)=NC1)CN1C(=O)c2ccccc2C1=O | 180 to 190 °C |
| c1ccc2c(c1)cnc1nnnn12 | 150 °C |
| CN(C)S(=O)(=O)c1nnc(N)s1 | 188 to 190 °C |
| COC(c1ccccc1)C(C)O (stereo not drawn) | 104 to 106 °C |
| COc1cc(C(=O)N2CCCC(CCN3CCC(C(=O)c4nc5ccccc5n4Cc4ccc(F)cc4)CC3)(c3ccc(Cl)c(Cl)c3)C2)cc(OC)c1OC (stereo not drawn) | 93 to 95 °C |
| CC(C)(C)c1ccc(/C=N/OCCCOc2ccc(C(=O)O)c(NC(=O)c3ccc4ccccc4c3)c2)cc1 | 156 to 158 °C |
| CC(=O)OCC1OC(n2c(=O)sc3c(Cl)nc(N)nc32)C(OC(C)=O)C1OC(C)=O (stereo not drawn) | 101 to 103 °C |
| O=c1ccc(-c2c(-c3ccccc3)nn3ccccc23)nn1C1CCCC(O)C1 (stereo not drawn) | 117 to 118 °C |
| O=C1C(Br)=CN=CC1Br (stereo not drawn) | 320 °C |
| CCCCCCc1cc(C(=O)O)c(N)s1 | 80 to 81 °C |
| Clc1ccc(C=NOCC2CO2)cc1 (stereo not drawn) | 69 to 70 °C |
| CCOC(=S)Nc1cccc(Cl)c1 | 78 to 79 °C |
| Cc1ccc(CCNC(=O)c2ccc3n2Cc2ccccc2N(C(=O)c2ccc(-c4ccccc4C)c(C)c2)C3)cc1 | 161 to 163 °C |
| CC(=O)Oc1ccccc1C(=O)NC(Cl)C(Cl)(Cl)Cl (stereo not drawn) | 88 to 90 °C |

Further lines, results first:

| melting point | SMILES |
| --- | --- |
| 197 to 200 °C | CCOCc1nc2c(N)nc3ccccc3c2n1CCCCS(=O)(=O)Nc1ccccn1 |
| 57 to 58 °C | CC=Cn1c2ccccc2c2ccccc21 |
| 99 to 102 °C | Cc1ccc(S(=O)(=O)c2ccc(O)cc2)c(Br)n1 |
| 191 to 193 °C | Cc1nc2ccc(-c3ccc(OCC4(NC(=O)C5CC5)COC4)cc3)nn2c1-c1cnc(N)c(C(F)(F)F)c1 |
| 49 to 51 °C | COC(=O)c1cc(C(C)C)sc1NC(=O)Nc1ccc(C)cc1 |
| 60 to 62 °C | O=C1C(=O)c2ccccc2C2=C1SCC(CNCc1ccccc1)O2 (stereo not drawn) |
| 161 to 163 °C | CSc1nc2cc(-c3cccnc3)cc(N)n2n1 |
| 107 to 108 °C | CCCCS(=O)(=O)Nc1cccc(Oc2cccc3cccnc23)c1 |
| 172 to 173 °C | CC(Cc1cccc([N+](=O)[O-])c1)(NC(=O)CN1C(=O)c2ccccc2C1=O)c1ccccc1 (stereo not drawn) |
| 79 to 79.5 °C | CCCCC(=O)c1ccc(-c2ccccc2)cc1 |
| 174 to 175 °C | NC(=O)c1c(F)ccc(OCc2nc3ccc(OC(F)(F)F)cc3s2)c1F |
| 224 to 225 °C | NC(=O)c1sc(Nc2ccc(Cl)cc2)c2c1CCc1cnoc1-2 |
| 231 to 233 °C | Nc1c(-c2ccc(Br)cc2)nc2ccc(F)cc2c1C(=O)O |
| 227 to 229 °C | Cc1nc2cccc(OCC(C)(C)C(=O)NC3CC3)c2c(N)c1C(=O)O |
| 118 to 120 °C | NS(=O)(=O)c1nc2ccc(OC(=O)CC3CCCC3)cc2s1 |
| 148 to 154 °C | Clc1cc(-c2ccc(CBr)c(Cl)c2)ccc1CBr |
| 290 to 305 °C | CCOC(=O)c1cc2c(cn1)[nH]c1ccc(C(C)=O)cc12 |
| 205 to 206 °C | CC1(C)OC(=O)Nc2ccc(/C(=C/C#N)c3ccccc3)cc21 |
| 231 to 232 °C | CC(C)c1cccc(C(C)C)c1NC(=O)CC1c2ccccc2Oc2ccccc21 |
| 159 °C | COc1cc2c(cc1O)OCC(c1ccc(O)cc1)C2 (stereo not drawn) |

| melting point | SMILES |
| --- | --- |
| 185 to 186 °C | CCCCCCCc1ccc(-c2ccc(-c3cc(F)cc(F)c3)cc2)nc1 |
| 163 to 165 °C | CC(C)c1ccc2c(c1)CCN2C(=O)Nc1cccnc1 |
| 114 to 115 °C | CC(C)(C)c1ccc(C(N)=O)cc1[N+](=O)[O-] |
| 157 to 158 °C | S=C(Nc1ccccc1Br)c1ccccc1 |
| 161 to 163 °C | O=C(NO)[C@@H](CC(=O)N1CCOCC1)NS(=O)(=O)c1ccc(Oc2ccccc2)cc1 |
| 103 to 104 °C | O=Cc1nccc(OCc2ccccc2)c1OCc1ccccc1 |
| 132 to 134 °C | O=[N+]([O-])c1ccc(-c2ncnn2-c2ccc(F)cc2)cc1 |
| 84 to 87 °C | COc1ccc(OCCOS(N)(=O)=O)cc1 |
| 183 to 184 °C | Cc1cc(Cc2nnc(Nc3ccc(Cl)cc3)c3ccccc23)ccn1 |
| 90 to 91 °C | C=C(C)C(=O)OCCOCc1ccc(O)c2ncccc12 |
| 105 to 106 °C | COc1ccccc1SC(CCc1ccc(Cl)cc1)Cn1ccnc1 (stereo not drawn) |
| 177 to 180 °C | CCOC(=O)C(=O)CC(=O)c1ccc2c(c1)c(=O)c(CCC(=O)O)cn2Cc1ccc(F)cc1 |
| 173 to 175 °C | CC(C)n1nc(-c2c(-c3ccccc3)oc(=O)n2C(C)C(=O)O)ccc1=O (stereo not drawn) |
| 200 to 201 °C | CCS(=O)(=O)c1ccc(C(CC2CCCC2)C(=O)NC(=O)NC)cc1 (stereo not drawn) |
| 233 to 235 °C | Cc1ccc(S(=O)(=O)OC[C@H]2COc3cc(C)c4c(c3O2)CC(=O)N4)cc1 |
| 160 °C | Cc1ccc(S(=O)(=O)N2C=Cc3cccc(-n4cccc4)c3C2C#N)cc1 (stereo not drawn) |
| 228 to 230 °C | CNc1nc(-c2ccc(SC)cc2)nc(SC)c1C(=O)Nc1ccc(C)cc1 |
| 168 to 175 °C | O=c1c(Br)c(OCc2ccc(Cl)cc2)cnn1-c1ccc(Cl)cc1 |
| 248 to 254 °C | O=C(/C=C/c1ccc(O)cc1Cl)CC(=O)/C=C/c1ccc(O)cc1Cl |
